# According to US9029381B2, “Cyclopropyl amide derivatives” (Astrazeneca AB, priority 2007, dated 2015):
# How the values were obtained:
# [1] = biological target: human histamine H3 receptors (Homo sapiens (Human), UniProt Q9Y5N1); assay: Histamine H3 SPA with the agonist radioligand [3H]-N-α-methylhistamine (hH3 binding); settings: inhibition of [3H]-N-α-methylhistamine (1.4 nM) binding to CHO-K1 membranes expressing full-length human H3 (isoform 445)
# Method: Histamine H3 SPA with the Agonist Radioligand [^3H]-N-α-Methylhistamine
# The H3 binding assay was/can be used to evaluate the ability of at least one compound in accordance with formula I, Ia, Ib, and/or Ic to inhibit [^3H]-N-α-methylhistamine binding to CHO-K1 membranes expressing human histamine H3 receptors (full-length H3, the most prevalent brain isoform 445). In 200 μl 96-well SPA format, human H3 membranes (12.5 μg protein/well) and 1.4 nM [^3H]-N-α-methylhistamine were/can be incubated with at least one compound in accordance with formula I, Ia, Ib, and/or Ic for 1.5 hrs to determine percent effect with respect to total (1% DMSO) and non-specific binding (10 μM imetit). […] Single poke (SP) testing can be done in triplicate.
# Membranes, prepared from CHO-K1 cells stably expressing the human histamine H3 receptor, can be obtained from ACS.
# Tested formula I, Ia, Ib, and/or Ic compounds were/can be provided as solubilized samples in neat DMSO. Serial dilutions were/can be performed in DMSO.
# Plates were/can be 96-well Unifilter GF/B (Perkin Elmer, 6005177). Plates were/can be read on a Perkin Elmer TopCount. CPM data was/can be used to analyze unless DPM data generated by a quench curve was/is required.
# • 1. 1 mg/ml BSA was/can be added to assay buffer (AB) on day of assay. • 2. Amounts required for bead/membrane pool in AB were/can be calculated: “P”−need 17.1 ml/assay plate+10 ml PlateMate excess. Buffer volume was/can be split between beads and membranes to allow for polytroning of membranes prior to addition to beads. • a. […] A minimum of 15 minutes was/can be waited prior to adding membranes (See b. below). • b. Membranes (hH3 membranes from CHO cells containing recombinant human H3 receptors, 11.7 mg/ml): membranes were/can be removed from −80° C. and thawed in RT waterbath. (0.0702 mg/ml×P) mg of membranes were/can be resuspended in the remaining volume not used with beads above for 12.5 μg/well final and homogenized briefly at polytron speed 5.0. The homogenized membrane mixture was/can be combined with the beads and a minimum of 30 minutes was/can be waited prior to dispensing to plate. • 3. Formula I, Ia, Ib, and/or Ic compounds: For Single Poke, 2 μl mM of a compound in accordance with formula I, Ia, Ib, and/or Ic was/can be dispensed to Optiplates (triplicate plates) for final a concentration of 10 μM. […] Imetit (see below) was/can be used as a control. • 4. […] [^3H]-N-α-methylhistamine ([^3H]-NAMH): A solution in AB at 14 nM, 10× final concentration of 1.4 nM was/can be prepared. 5 μl samples were/can be calculated in quadruplicate on the 13 counter. If concentration was/is 12-14.5 nM, no adjustment was/is may be required. (For IC50s, use final concentration on calculation tab of ABase template.) Assay • 1. […] 2 μl of the formula I, Ia, Ib, and/or Ic compound dilution was/can be mixed and then transferred into assay plates. DMSO was/can be removed and 2 μl of 100 μM Imetit was/can be added to the wells. • 3. 178 μl bead/membrane mixture was/can be dispensed into the assay plate. • 4. 20 μl [^3H]-NAMH was/can be added with Rapid Plate. The assay plate was/can be sealed and incubated for 1.5 hr on RT shaker at speed ˜6.5. • 5. The assay plate was/can be subsequently centrifuged at 1000 rpm for 10 minutes. • 6. The count was/can be performed on TopCount using one of the 3H SPA H3 Quench programs.
# The DPM data was/can be analyzed when tSIS was/is less than that associated with 70% of full scale on the quench curve (tSIS<25%). Otherwise, CPM data was/is used.
# (§1) The IC50 and nH can be determined by fitting the data to model 205 in XLfit: y=A+((B−A)/(1+((C/x)^D)). Guanosine 5′-O-(3-[^35S]thio)triphosphate [GTPγS] Binding Assay
# [2] = biological target: human Histamine H3 receptor (hH3R) (Homo sapiens (Human), UniProt Q9Y5N1); assay: Guanosine 5'-O-(3-[35S]thio)triphosphate [GTPγS] binding assay; assay type: biochemical; settings: antagonist mode vs (R)-α-methyl histamine 30 nM; membranes from CHO cells expressing hH3R
# Method: as §1
# A GTPγS binding assay can be used to investigate antagonist properties of compounds in CHO cells (Chinese Hamster Ovary) transfected with human Histamine H3 receptor (hH3R). Membranes from CHO cells expressing hH3R (10 μg/well) are diluted in GTPγS assay buffer (20 mM Hepes, 10 mM MgCl2, 100 mM NaCl, pH 7.4) and preincubated with saponine (3 μg/ml), GDP (10 μM) and PVT-WGA SPA beads (125 μg/well) (Amersham) for 30 minutes. To determine antagonist activity, (R)-α-methyl histamine (30 nM) is added in 96 well SPA plate with [^35S]GTPγS (0.2 nM) and various concentration of H3R antagonists. The GTPγS binding assay is started with addition of the mixture membrane/saponine/GDP and incubated for 90 minutes at room temperature. The amount of bound [^35S]GTPγS is determined by using the MicroBeta Trilux counter (PerkinElmer). The percentage of [^35S]GTPγS bound in each sample is calculated as a percentage of that bound control sample incubated in absence of H3 antagonist. Duplicate determinations are obtained for each concentration, and the data are analyzed using ExcelFit4 to obtain the IC50.
# Sequence of human Histamine H3 receptor (hH3R) (Q9Y5N1 whole entry): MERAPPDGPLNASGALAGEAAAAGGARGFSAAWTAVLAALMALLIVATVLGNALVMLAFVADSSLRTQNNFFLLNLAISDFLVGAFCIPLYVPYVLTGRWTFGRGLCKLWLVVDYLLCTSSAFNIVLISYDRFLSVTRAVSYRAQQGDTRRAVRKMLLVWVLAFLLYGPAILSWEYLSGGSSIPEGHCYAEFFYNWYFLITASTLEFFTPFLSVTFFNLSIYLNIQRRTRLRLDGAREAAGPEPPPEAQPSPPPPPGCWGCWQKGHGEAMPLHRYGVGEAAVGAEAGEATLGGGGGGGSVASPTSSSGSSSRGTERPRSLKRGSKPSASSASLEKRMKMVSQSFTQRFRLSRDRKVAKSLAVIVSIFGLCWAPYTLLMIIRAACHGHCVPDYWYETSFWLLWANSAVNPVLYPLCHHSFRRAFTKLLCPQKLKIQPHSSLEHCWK
# Sequence of human histamine H3 receptors (Q9Y5N1 whole entry, canonical isoform): as the sequence (Q9Y5N1 whole entry) above
IC50 [1] [nM],IC50 [2] [nM],SMILES
0.834,,"N#Cc1cccc([C@@H]2C[C@H]2C(=O)N2CCN(C3CCC3)CC2)c1 (relative stereo) [Example 29, trans-3-[2-(4-cyclobutylpiperazine-1-carbonyl)cyclopropyl]benzonitrile]"
,3.81,"NC(=O)c1ccc([C@@H]2C[C@H]2C(=O)N2CCN(C3CCC3)CC2)cc1 (single isomer, unassigned; enantiomer 1) [Example 43, 4-((trans)-2-(4-cyclobutylpiperazine-1-carbonyl)cyclopropyl)benzamide, enantiomer 1]"
4160,,"O=C([C@H]1C[C@@H]1c1ccccc1)N1CCN(C2CCCCCC2)CC1 (relative stereo) [Example 3, trans-(4-Cycloheptylpiperazin-1-yl)-(2-phenylcyclopropyl)methanone]"
6.4,,"O=C([C@H]1C[C@@H]1c1ccccc1)N1CCN(C2CCC2)CC1 (relative stereo) [Example 4, trans-(4-Cyclobutylpiperazin-1-yl)-(2-phenylcyclopropyl)methanone]"
45.3,,"CC(C)(C)N1CCN(C(=O)[C@H]2C[C@@H]2c2ccccc2)CC1 (relative stereo) [Example 9, trans-(4-tert-Butylpiperazin-1-yl)-(2-phenylcyclopropyl)methanone]"
,834,"NC(=O)c1ccc([C@@H]2C[C@H]2C(=O)N2CCN(C3CCC3)CC2)cc1 (single isomer, unassigned; enantiomer 2) [Example 44, 4-((trans)-2-(4-cyclobutylpiperazine-1-carbonyl)cyclopropyl)benzamide, enantiomer 2]"
,> 1050,"NC(=O)c1cccc([C@@H]2C[C@H]2C(=O)N2CCN(C3CCC3)CC2)c1 (single isomer, unassigned; enantiomer 2) [Example 37, 3-((trans)-2-(4-cyclobutylpiperazine-1-Carbonyl)cyclopropyl)benzamide, enantiomer 2]"
7.3,,"O=C([C@@H]1C[C@H]1c1ccc(F)cc1)N1CCN(C2CCC2)CC1 (relative stereo) [Example 27, trans-(4-Cyclobutylpiperazin-1-yl)-[2-(4-fluorophenyl)cyclopropyl]methanone]"
,18.2,"O=C([C@@H]1C[C@H]1c1cccc(N2CCCCC2=O)c1)N1CCN(C2CCC2)CC1 (single isomer, unassigned; enantiomer 1) [Example 40, 1-(3-((trans)-2-(4-cyclobutylpiperazine-1-carbonyl)cyclopropyl)phenyl)piperidin-2-one, enantiomer 1]"
351,,"O=C([C@H]1C[C@@H]1c1ccc(N2CCCC2)cc1)N1CCN(C2CCC2)CC1 (relative stereo) [Example 19, trans-(4-cyclobutylpiperazin-1-yl) {-2-[4-(pyrrolidin-1-yl)phenyl]cyclopropyl}methanone]"
88.3,,"O=C([C@H]1C[C@@H]1c1ccc(C(F)(F)F)nc1)N1CCN(C2CCC2)CC1 (relative stereo) [Example 26, trans-(4-Cyclobutylpiperazin-1-yl)(2-(6-(trifluoromethyl)pyridin-3-yl)cyclopropyl)methanone]"
441,,"CN1CCN(c2ccc([C@H]3C[C@@H]3C(=O)N3CCN(C4CCC4)CC3)cc2)C1=O (relative stereo) [Example 16, trans-1-{4-[2-(4-Cyclobutylpiperazine-1-carbonyl)cyclopropyl]phenyl}-3-methylimidazolidin-2-one]"
62.5,,"CS(=O)(=O)Nc1ccc([C@H]2C[C@@H]2C(=O)N2CCN(C3CCC3)CC2)cc1 (relative stereo) [Example 18, trans-N-{4-[2-(4-Cyclobutylpiperazine-1-carbonyl)cyclopropyl]phenyl}methane-sulfonamide]"
,733,"O=C([C@@H]1C[C@H]1c1cccc(N2CCCCC2=O)c1)N1CCN(C2CCC2)CC1 (single isomer, unassigned; enantiomer 2) [Example 41, 1-(3-((trans)-2-(4-cyclobutylpiperazine-1-carbonyl)cyclopropyl)phenyl)piperidin-2-one, enantiomer 2]"
13.3,,"O=C([C@H]1C[C@@H]1c1ccc(Br)cc1)N1CCN(C2CCC2)CC1 (relative stereo) [Example 13, trans-[2-(4-Bromophenyl)cyclopropyl]-(4-cyclobutylpiperazin-1-yl)methanone]"
7.56,,"O=C([C@H]1C[C@@H]1c1ccccc1)N1CCCN(C2CCC2)CC1 (relative stereo) [Example 8, trans-(4-Cyclobutyl-1,4-diazepan-1-yl)-(2-phenylcyclopropyl)methanone]"
44.7,,"O=C([C@H]1C[C@@H]1c1ccccc1)N1CCN(C2CC2)CC1 (relative stereo) [Example 5, trans-(4-Cyclopropylpiperazin-1-yl)-(2-phenylcyclopropyl)methanone]"
,127,"CC(C)N1CCN(C(=O)C2CC2c2cnn(C)c2)CC1 (centres unmarked) [Example 45, (4-isopropylpiperazin-1-yl)(2-(1-methyl-1H-pyrazol-4-yl)cyclopropyl)methanone]"
,> 1800,"O=C([C@@H]1C[C@H]1c1cccc(N2CCCC2=O)c1)N1CCN(C2CCC2)CC1 (single isomer, unassigned; enantiomer 2) [Example 39, 1-(3-((trans)-2-(4-cyclobutylpiperazine-1-carbonyl)cyclopropyl)phenyl)pyrrolidin-2-one, enantiomer 2]"
,11.6,"O=C([C@@H]1C[C@H]1c1cccc(N2CCCC2=O)c1)N1CCN(C2CCC2)CC1 (single isomer, unassigned; enantiomer 1) [Example 38, 1-(3-((trans)-2-(4-cyclobutylpiperazine-1-carbonyl)cyclopropyl)phenyl)pyrrolidin-2-one, enantiomer 1]"
14,,"O=C([C@H]1C[C@@H]1c1ccccc1)N1CCN(C2CCCC2)CC1 (relative stereo) [Example 6, trans-(4-Cyclopentylpiperazin-1-yl)-(2-phenylcyclopropyl)methanone]"
105,,"O=C([C@H]1C[C@@H]1c1ccccc1)N1CCN(C2CCCCC2)CC1 (relative stereo) [Example 2, trans-(4-Cyclohexylpiperazin-1-yl)-(2-phenyl-cyclopropyl)methanone]"
1.37,,"O=C([C@@H]1C[C@H]1c1cccc(Br)c1)N1CCN(C2CCC2)CC1 (relative stereo) [Example 28, trans-[2-(3-Bromophenyl)cyclopropyl]-(4-cyclobutylpiperazin-1-yl)methanone]"
